pEC50: −log10 of the molar value.
Target: T1, human mGluR4 (Homo sapiens, UniProt Q14833)
T1 construct: expressed in transfected cells; host or cells: HEK-293
Test: mGluR4 Assay on HEK-Expressing Human mGluR4 (FLIPR Ca2+ fluorescence, PAM activity)
Assay type: cell-based
Conditions: human mGluR4 HEK-293 cells
Protocol: mGluR4 Assay on HEK-Expressing Human mGluR4
Since, as explained above, the compounds of the present invention are positive allosteric modulators of mGluR4 receptors, which activity was assayed by detecting changes in intracellular Ca^+2 ion concentration using a Ca^+2-sensitive fluorescent dye (Fluo4-(AM)) and a fluorometric imaging plate reader (FLIPR, Molecular Devices, Sunnyvale, Calif.) in accordance with the manufacturers instructions.
Accordingly, 24 hours prior to carrying out an analysis, human mGluR4 HEK-293 cells were plated out in black-walled, clear-bottomed, poly-L-ornithine-coated 384-well plates at a density of 25,000 cells/well in a glutamine/glutamate-free DMEM medium containing fetal bovine serum (10%), penicillin (100 units/mL) and streptomycin (100 micrograms/mL) at 37° C. under 5% CO2. On the day of the assay, the medium was aspirated and the cells were loaded with a 3 micro-molar solution of Fluo4-AM (LuBioScience, Lucerne, Switzerland) in 0.03% pluronic acid. After maintaining the plate 1 hour at 37° C. under 5% CO2 the non-incorporated dye was removed by washing the cell plate with the assay buffer and the cells were left in the dark at room temperature for six hours before evaluating. All assays were performed in a pH 7.4 buffered-solution containing 20 mM HEPES, 142 mM NaCl, 6 mM KCl, 1 mM MgSO4, 1 mM CaCl2, 0.125 mM sulfapyrazone, and 1% glucose.
Basal fluorescence was recorded over 10 seconds, then aliquots of various concentrations of a compound of the invention were added to the cells. Changes in fluorescence level were first monitored for 180 seconds in order to detect any agonist activity attributable to the compound being assayed. Then the cells were stimulated for an additional 110 seconds by that concentration of glutamate yielding 25% of the maximal response to glutamate (EC25). Concentration-response curves of compounds of the invention were generated using Prism GraphPad software (Graph Pad Inc., San Diego, USA). Curves generated were fitted to a four-parameter logistic equation allowing the determination of EC50 values:
Y=Bottom+(Top−Bottom)/(1+10^logEC^50-^X)*Hill Slope.
For each sample assayed, at least three independent measurements were performed. EC50 values thus determined are reported for each of the compounds of the invention in the respective Tables 1 to 3 herein above.

[1] = Table II, Fluo4-AM/FLIPR, stimulated with glutamate EC25
[2] = Table I, Fluo4-AM/FLIPR, stimulated with glutamate EC25

T1 sequence (Q14833 33-912): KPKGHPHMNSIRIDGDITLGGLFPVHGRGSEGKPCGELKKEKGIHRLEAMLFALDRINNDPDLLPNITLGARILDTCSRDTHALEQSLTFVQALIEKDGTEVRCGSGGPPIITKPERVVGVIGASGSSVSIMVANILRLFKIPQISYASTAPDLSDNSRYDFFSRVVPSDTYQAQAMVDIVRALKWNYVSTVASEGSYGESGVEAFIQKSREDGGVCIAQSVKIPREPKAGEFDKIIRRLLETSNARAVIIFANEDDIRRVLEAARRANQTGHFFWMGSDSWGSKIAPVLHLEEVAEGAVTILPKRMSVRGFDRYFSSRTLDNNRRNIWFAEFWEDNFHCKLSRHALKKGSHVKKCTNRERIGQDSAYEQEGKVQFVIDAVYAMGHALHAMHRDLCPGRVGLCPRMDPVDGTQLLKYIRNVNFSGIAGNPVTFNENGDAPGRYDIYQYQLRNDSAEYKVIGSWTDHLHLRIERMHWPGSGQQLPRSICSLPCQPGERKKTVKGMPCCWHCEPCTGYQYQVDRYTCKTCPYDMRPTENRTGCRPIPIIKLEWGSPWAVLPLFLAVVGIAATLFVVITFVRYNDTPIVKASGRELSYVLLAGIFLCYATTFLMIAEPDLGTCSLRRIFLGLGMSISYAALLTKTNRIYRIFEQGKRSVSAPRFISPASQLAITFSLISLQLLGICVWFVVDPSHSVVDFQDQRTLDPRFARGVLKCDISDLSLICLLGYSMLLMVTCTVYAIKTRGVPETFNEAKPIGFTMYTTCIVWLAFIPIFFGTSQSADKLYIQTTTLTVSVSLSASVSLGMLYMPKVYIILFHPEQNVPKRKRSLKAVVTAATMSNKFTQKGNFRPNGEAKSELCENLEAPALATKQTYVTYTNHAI

| Structure (SMILES) | pEC50 [1] | pEC50 [2] | further results |
| --- | --- | --- | --- |
| Cc1ccnc(Nc2nc3c(s2)COC(C)c2[nH]ncc2-3)n1 (racemic) [Cmpd 18, N-(4-methylpyrimidin-2-yl)-6-methyl-6,7-dihydro-4H-pyrazolo[4′,3′:5,6]oxepino[4,3-d][1,3]-thiazol-2-amine] | 8.52 |  |  |
| Cc1ccnc(Nc2nc3c(s2)C(C)(C)Cc2[nH]ncc2-3)n1 [Cmpd 1, 4,4-dimethyl-N-(4-methylpyrimidin-2-yl)-5,6-dihydro-4H-[1,3]thiazolo[4,5-e]indazol-2-amine] |  | 6.49 |  |
| Cc1ccnc(Nc2nc3c(ccc4[nH]ncc43)s2)n1 [Cmpd 2, N-(4-methylpyrimidin-2-yl)-6H-[1,3]thiazolo[4,5-e]indazol-2-amine] |  | 7.55 |  |
| c1cnc(Nc2nc3c(ccc4[nH]ncc43)s2)nc1 [Cmpd 3, N-(pyrimidin-2-yl)-6H-[1,3]thiazolo[4,5-e]indazol-2-amine] |  | 8.05 |  |
| CC1(C)Cc2[nH]ncc2-c2nc(Nc3ncc(F)cn3)sc21 [Cmpd 4, N-(5-fluoropyrimidin-2-yl)-4,4-dimethyl-5,6-dihydro-4H-[1,3]thiazolo[4,5-e]indazol-2-amine] |  | 6.12 |  |
| Cc1nc(Nc2nc3c(s2)C(C)(C)Cc2[nH]ncc2-3)ncc1F [Cmpd 5, N-(5-fluoro-4-methylpyrimidin-2-yl)-4,4-dimethyl-5,6-dihydro-4H-[1,3]thiazolo[4,5-e]indazol-2-amine] |  | 6.19 |  |
| Brc1cc2sc(Nc3ncccn3)nc2c2cn[nH]c12 [Cmpd 6, 5-bromo-N-(pyrimidin-2-yl)-6H-[1,3]thiazolo[4,5-e]indazol-2-amine] |  | 9.00 |  |
| Clc1cc2sc(Nc3ncccn3)nc2c2cn[nH]c12 [Cmpd 7, 5-chloro-N-(pyrimidin-2-yl)-6H-[1,3]thiazolo[4,5-e]indazol-2-amine] |  | 8.70 |  |
| Cc1ccnc(Nc2nc3c(cc(C)c4[nH]ncc43)s2)n1 [Cmpd 8, 5-methyl-N-(4-methylpyrimidin-2-yl)-6H-[1,3]thiazolo[4,5-e]indazol-2-amine] |  | 6.89 |  |
| CC1Cc2sc(Nc3ncccn3)nc2-c2cn[nH]c21 (stereo not drawn) [Cmpd 9, 5-methyl-N-(pyrimidin-2-yl)-5,6-dihydro-4H-[1,3]thiazolo[4,5-e]indazol-2-amine] |  | 8.70 |  |
| Cc1ccnc(Nc2nc3c(s2)CC(C)c2[nH]ncc2-3)n1 (stereo not drawn) [Cmpd 10, 5-methyl-N-(4-methylpyrimidin-2-yl)-5,6-dihydro-4H-[1,3]thiazolo[4,5-e]indazol-2-amine] |  | 7.44 |  |
| Cc1ccnc(Nc2nc3c(s2)C2(CC2)Cc2[nH]ncc2-3)n1 [Cmpd 11, N-(4-methylpyrimidin-2-yl)-5′,6′-dihydrospiro[cyclopropane-1,4′-[1,3]thiazolo[4,5-e]indazol]-2′-amine] |  | 6.26 |  |
| c1cnc(Nc2nc3c(s2)C2(CC2)Cc2[nH]ncc2-3)nc1 [Cmpd 12, N-(pyrimidin-2-yl)-5′-6′-dihydrospiro[cyclopropane-1,4′-[1,3]thiazolo[4,5-e]indazol]-2′-amine] |  | 7.46 |  |
| Fc1cnc(Nc2nc3c(s2)C2(CC2)Cc2[nH]ncc2-3)nc1 [Cmpd 13, N-(5-fluoropyrimidin-2-yl)-5′,6′-dihydrospiro[cyclopropane-1,4′-[1,3]thiazolo[4,5-e]indazol]-2′-amine] |  | 7.03 |  |
| c1cnc(Nc2nc3c(s2)Cc2[nH]ncc2-3)nc1 [Cmpd 14, N-(pyrimidin-2-yl)-1,7-dihydropyrazolo[3′,4′:4,5]cyclopenta[1,2-d][1,3]thiazol-5-amine] | 5.85 |  |  |
| Fc1cnc(Nc2nc3c(s2)COCc2[nH]ncc2-3)nc1 [Cmpd 15, N-(5-fluoropyrimidin-2-yl)-6,7-dihydro-4H-pyrazolo[4′,3′:5,6]oxepino[4,3-d][1,3]thiazol-2-amine] | 8.10 |  |  |
| c1cnc(Nc2nc3c(s2)COCc2[nH]ncc2-3)nc1 [Cmpd 16, N-(pyrimidin-2-yl)-6,7-dihydro-4H-pyrazolo[4′,3′:5,6]oxepino[4,3-d][1,3]thiazol-2-amine] | 8.15 |  |  |
| Cc1ccnc(Nc2nc3c(s2)COCc2[nH]ncc2-3)n1 [Cmpd 17, N-(4-methylpyrimidin-2-yl)-6,7-dihydro-4H-pyrazolo[4′,3′:5,6]oxepino[4,3-d][1,3]thiazol-2-amine] | 8.00 |  |  |
| COc1ccnc(Nc2nc3c(s2)COCc2[nH]ncc2-3)n1 [Cmpd 19, N-(4-methoxypyrimidin-2-yl)-6,7-dihydro-4H-pyrazolo[4′,3′:5,6]oxepino[4,3-d][1,3]thiazol-2-amine] | 7.55 |  |  |
| CCc1ccnc(Nc2nc3c(s2)COC(C)c2[nH]ncc2-3)n1 (stereo not drawn) [Cmpd 20, 6-Methyl-N-[4-(ethyl)pyrimidin-2-yl]-6,7-dihydro-4H-pyrazolo[4′,3′:5,6]oxepino[4,3-d][1,3]thiazol-2-amine] | 6.76 |  |  |
| Cc1nc(Nc2nc3c(s2)COC(C)c2[nH]ncc2-3)ncc1F (stereo not drawn) [Cmpd 21, N-(5-Fluoro-4-methylpyrimidin-2-yl)-6-methyl-6,7-dihydro-4H-pyrazolo[4′,3′:5,6]oxepino[4,3-d][1,3]thiazol-2-amine] | 7.57 |  |  |
| Cc1ccnc(Nc2nc3c(s2)C(C)OCc2[nH]ncc2-3)n1 (stereo not drawn) [Cmpd 23, 4-methyl-N-(4-methylpyrimidin-2-yl)-6,7-dihydro-4H-pyrazolo[4′,3′:5,6]oxepino[4,3-d][1,3]thiazol-2-amine] | 6.73 |  |  |
| Cc1ccnc(Nc2nc3c(s2)C(C)OC(C)c2[nH]ncc2-3)n1 (stereo not drawn) [Cmpd 24, 4,6-dimethyl-N-(4-methylpyrimidin-2-yl)-6,7-dihydro-4H-pyrazolo[4′,3′:5,6]oxepino-[4,3-d][1,3]thiazol-2-amine] | 6.92 |  |  |
| c1cnc(Nc2nc3c(s2)CNCc2[nH]ncc2-3)nc1 [Cmpd 27, N-(pyrimidin-2-yl)-4,5,6,7-tetrahydropyrazolo[3,4-c][1,3]thiazolo[4,5-e]azepin-2-amine] | 6.00 |  |  |
| Cc1ccnc(Nc2nc3c(s2)CN(C)Cc2[nH]ncc2-3)n1 [Cmpd 28, 5-methyl-N-(4-methylpyrimidin-2-yl)-4,5,6,7-tetrahydropyrazolo[3,4-c][1,3]thiazolo[4,5-e]azepin-2-aminee] | 5.62 |  |  |
| Fc1cnc(Nc2nc3c(s2)CCCc2[nH]ncc2-3)nc1 [Cmpd 29, N-(5-fluoropyrimidin-2-yl)-4,5,6,7-tetrahydropyrazolo[3′,4′:6,7]cyclohepta[1,2-d][1,3]thiazol-2-amine] | 7.41 |  |  |
| Cc1ccnc(Nc2nc3c(s2)CCC(F)(F)c2[nH]ncc2-3)n1 [Cmpd 34, 6,6-difluoro-N-(4-methylpyrimidin-2-yl)-4,5,6,7-tetrahydropyrazolo[3′,4′:6,7]cyclohepta[1,2-d][1,3]thiazol-2-amine] | 7.25 |  |  |
| Cc1ccnc(Nc2nc3c(s2)CCC(=O)c2[nH]ncc2-3)n1 [Cmpd 36, 2-[(4-methylpyrimidin-2-yl)amino]-4,7-dihydropyrazolo[3′,4′:6,7]cyclohepta[1,2-d][1,3]thiazol-6(5H)-one] | 5.82 |  |  |
| Cc1nc(Nc2nc3c(s2)COC(C)c2[nH]ncc2-3)ns1 (stereo not drawn) [Cmpd 38] |  |  | pEC50 (text b34, glutamate EC25): 7.15 |
| Cc1ccnc(Nc2nc3c(s2)CC(F)Cc2[nH]ncc2-3)n1 (stereo not drawn) [Cmpd 40] | 7.70 |  |  |

Reference: patent US20130210807A1, “Tricyclic Compounds as Allosteric Modulators of Metabotropic Glutamate Receptors” (priority 2010, published 2013)
